How the values were obtained:
[1] = system: Atoh1, Pou4f3, Myo7a expression in otic spheres; assay: Otic sphere assay, hair cell gene expression; assay type: cell-based, mouse
Description: The generation of otic spheres followed previously described protocols ([Oshima et al., 2009]) with modifications during differentiation phase to test GSIs. Briefly, OCs were dissociated and single cells were deposited in ultralow-cluster plates (Corning) and expanded in “full otic medium” consisting of DMEM/F12, supplemented with N2, B27 (Thermo Fisher), EGF (20 ng/ml; Chemicon), bFGF (10 ng/ml; Chemicon), IGF-1 (50 ng/ml; Chemicon), and heparan sulfate (50 ng/ml; Sigma-Aldrich). After culturing for 3–4 days at 37°C, spheres were collected, plated in cell culture-treated 96 well-plate and cultured in DMEM/F12, supplemented with N2, B27 with/without GSIs for 7 days after which they were lysed for RNA extraction.
Cells or tissue were lysed using RLT Lysis Buffer (Qiagen) and high purity RNA was prepared on the MagNA Pure instrument using MagNA Pure 96 Cellular RNA LV Kit (Roche). Reagents from Thermo Fisher were used for cDNA synthesis by reverse transcription using random hexamers. Resulting cDNA was RNAse H treated and amplified by TaqMan GEX mastermix and PCR primers and probes for human ATOH1 (Hs00944192_s1) and TBP (Hs00427620_m1), mouse Tbp (Mm00446971_m1), Atoh1 (Mm00476035_s1), Hes5 (Mm00439311_g1), Pouf4s (Mm04213795_s1), and Myo7a (Mm01274015_m1) on the Applied Biosystems QuantStudio 7 Flex Real-Time PCR System. Normalized to Tbp, relative gene expression fold-change was quantified and compared between experimental and control conditions by ΔΔCt calculation.
CPD3 and CPD8 were further compared for their potency to induce hair cell gene expression in otic sphere assays ([Oshima et al., 2009]). Cells were first expanded in presence of growth factors, and in a second step differentiated by growth factor removal and GSI treatment. […] This indicated a modest advantage of CPD3 in eliciting expression of the early hair cell marker Atoh1, but similar potency on expression of some later markers of HC differentiation, Pou4f3 and Myo7a (Figure 2A). From the results of two screening assays, CPD3 was selected for additional characterization studies based on its lower IC50 to induce Atoh1/ATOH1 expression in the otic spheres and LS174T cells, respectively.

[2] = system: hair cell genes (Atoh1, Pou4f3, Myo7a) and supporting cell gene (Hes5) in cochlear organoids; assay: Cochlear organoids from Atoh1-nGFP mice, gene expression by RT-PCR; assay type: cell-based; conditions: mouse organoids, 5 μM, end of differentiation, vs untreated
Description: On day 0, the cochlear sensory epithelium was dissected and the OC was separated from the modiolus and stria vascularis, as described above, from either Wistar rat pups (P2), Lgr5-GFP mice (P0–P2) or Atoh1-GFP mice (P0–P2). To separate the sensory epithelial layer from underlying mesenchyme and neurons, the OC was placed in a 100 μl drop of Matrisperse Cell Recovery Solution (Corning) for 1 h at RT, then delaminated with the aid of forceps. Gentle enzymatic dissociation of hair cells and supporting cells followed with 100 μl drop of TrypLE (Gibco), 20 min at 37°C, then mechanical trituration in DMEM/F12. The cell suspension was centrifuged for 5 min at 500 g at 4°C and resuspended in DMEM/F12 medium supplemented with B27 and N2 (Invitrogen), EGF (50 ng/ml), bFGF (50 ng/ml), IGF (25 ng/ml), CHIR99021 (GSK-3β inhibitor, 3 μM, Merck), valproic acid (HDAC inhibitor, 1 mM, Sigma), 2-phospho-L-ascorbic acid (280 μM, Stemcell Technologies) and 0.01% ampicillin (Sigma). Cells were plated at 2,000 cells per well on 96 wells plate (Corning Costar; ultra-low attachment, round-bottom) to allow aggregation at 37°C. On day 1, Matrigel (GF-depleted, Corning; 2% stock) was added to a final concentration of 0.18 mg/ml. On day 3, cells were transferred to 24 wells plate (ultra-low attachment; Corning Costar), pooling the organoid aggregates from 4 to 5 wells (96 well-plate) to one 24-well, culturing at 37°C and exchanging half medium and Matrigel every other day, On day 10, organoids were differentiated by replacing medium with DMEM/F12 supplemented with B27, N2, CHIR99021 (3 μM), and Notch inhibitors CPD3 (5 μM) or LY411575 (5 μM), and culture was continued as above for another 10 days.
Cells or tissue were lysed using RLT Lysis Buffer (Qiagen) and high purity RNA was prepared on the MagNA Pure instrument using MagNA Pure 96 Cellular RNA LV Kit (Roche). […] Normalized to Tbp, relative gene expression fold-change was quantified and compared between experimental and control conditions by ΔΔCt calculation. […]

IC50 ([1]; Mus musculus, 168 h, 7 days differentiation with GSI, read-out: IC50 for Atoh1 upregulation): 6.7 nM
Compound: COc1ccc2c(c1)N1CCC(C)(C)C1=CC(=O)[C@H]2NC(=O)[C@H](C)NC(=O)CCC(F)(F)F [CPD3]
Induction of Atoh1, Pou4f3 and Myo7a expression ([1]; dose-responsive, p < 0.05): significantly induced
Atoh1 expression [2]: 8.07 ± 5.6 fold
Myo7a expression [2]: 9.9 ± 10.5 fold
Pou4f3 expression [2]: 12.65 ± 11.07 fold
